Results published in PubChem BioAssay (NCI).
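How tested: cells in 96-well plates exposed to compound for 48 hours at five concentrations. GI50: concentration for 50% inhibition of growth. TGI: concentration producing complete growth inhibition.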

Key:
Experiment in all cases: inhibition of tumour cell growth, NCI panel, 48 h
[1] = system: SNB-75 CNS
[2] = system: 786-0 renal
[3] = system: U251 CNS
[4] = system: KM12 colon
[5] = system: HOP-92 NSCLC
[6] = system: SK-MEL-28 melanoma
[7] = system: MCF7 breast
[8] = system: EKVX NSCLC
[9] = system: PC-3 prostate
[10] = system: NCI/ADR-RES ovarian
[11] = system: HCC-2998 colon
[12] = system: CCRF-CEM leukemia
[13] = system: NCI-H23 lung
[14] = system: SNB-19 CNS
[15] = system: SN12C renal
[16] = system: HT29 colon
[17] = system: MDA-MB-231 breast
[18] = system: UACC-62 melanoma
[19] = system: HOP-62 NSCLC
[20] = system: COLO 205 colon
[21] = system: OVCAR-4 ovarian
[22] = system: TK-10 renal
[23] = system: SW-620 colon
[24] = system: OVCAR-8 ovarian
[25] = system: BT-549 breast
[26] = system: IGROV1 ovarian
[27] = system: HCT-15 colon
[28] = system: SF-539 CNS
[29] = system: OVCAR-5 ovarian
[30] = system: ACHN renal
[31] = system: NCI-H460 lung
[32] = system: SK-OV-3 ovarian
[33] = system: M14 melanoma
[34] = system: MOLT-4 leukemia
[35] = system: NCI-H522 lung
[36] = system: A549 NSCLC
[37] = system: NCI-H226 lung
[38] = system: LOX IMVI melanoma
[39] = system: T-47D breast
[40] = system: A498 renal
[41] = system: SF-268 CNS
[42] = system: SF-295 CNS
[43] = system: SK-MEL-2 melanoma
[44] = system: RXF 393 renal
[45] = system: OVCAR-3 ovarian
[46] = system: UACC-257 melanoma
[47] = system: DU-145 prostate
[48] = system: MALME-3M melanoma
[49] = system: MDA-MB-435
[50] = system: UO-31 renal
[51] = system: RPMI-8226 leukemia
[52] = system: SK-MEL-5 melanoma
[53] = system: K-562 leukemia
[54] = system: HCT-116 colon
[55] = system: SR leukemia
[56] = system: HS 578T breast

Nc1ncnc2nc(-c3ccc(C[P+](c4ccccc4)(c4ccccc4)c4ccccc4)cc3)[nH]c12
GI50 [1]: 57.7 µM
GI50 [2]: 48.2 µM
GI50 [3]: 32.7 µM

COc1cccc(-c2cc(=O)c3cc(N)ccc3[nH]2)c1
TGI [4]: > 100 µM
TGI [5]: 59.7 µM
TGI [6]: > 100 µM
TGI [7]: > 100 µM
TGI [8]: > 100 µM
TGI [9]: > 100 µM
TGI [1]: > 100 µM
TGI [2]: > 100 µM
TGI [10]: 11.9 µM
TGI [11]: 48.6 µM
TGI [12]: > 100 µM
TGI [13]: > 100 µM
TGI [14]: > 100 µM
TGI [3]: > 100 µM
TGI [15]: > 100 µM
TGI [16]: 18 µM
TGI [17]: > 100 µM
TGI [18]: > 100 µM
TGI [19]: > 100 µM
TGI [20]: > 100 µM
GI50 [21]: 82.3 µM
TGI [21]: > 100 µM
TGI [22]: > 100 µM
TGI [23]: > 100 µM
TGI [24]: > 100 µM
TGI [25]: > 100 µM
TGI [26]: > 100 µM
TGI [27]: > 100 µM
TGI [28]: 5.2 µM
TGI [29]: > 100 µM
TGI [30]: > 100 µM
TGI [31]: > 100 µM
TGI [32]: 6.79 µM
TGI [33]: > 100 µM
TGI [34]: > 100 µM
TGI [35]: 7.56 µM
TGI [36]: > 100 µM

COC12C=CC(CC1)C1C(=O)c3c(C)c(C)n(C)c3C(=O)C12 (stereo not drawn)
TGI [4]: > 100 µM
TGI [37]: > 100 µM
TGI [38]: > 100 µM
TGI [7]: > 100 µM
TGI [8]: > 100 µM
TGI [9]: > 100 µM
TGI [1]: > 100 µM
TGI [2]: > 100 µM
TGI [10]: > 100 µM
TGI [12]: > 100 µM
TGI [39]: > 100 µM
TGI [13]: > 100 µM
TGI [40]: > 100 µM
TGI [41]: > 100 µM
TGI [14]: > 100 µM
TGI [3]: > 100 µM
TGI [42]: > 100 µM
TGI [16]: > 100 µM
TGI [43]: > 100 µM
TGI [44]: > 100 µM
TGI [45]: > 100 µM
TGI [18]: > 100 µM
TGI [19]: > 100 µM
TGI [20]: > 100 µM
TGI [46]: > 100 µM
TGI [47]: > 100 µM
TGI [48]: > 100 µM
TGI [49]: > 100 µM
TGI [50]: > 100 µM
TGI [22]: > 100 µM
TGI [23]: > 100 µM
TGI [24]: > 100 µM
TGI [25]: > 100 µM
TGI [51]: > 100 µM
TGI [26]: > 100 µM
TGI [52]: > 100 µM
TGI [53]: > 100 µM
TGI [54]: > 100 µM
TGI [27]: > 100 µM
TGI [28]: > 100 µM
TGI [29]: > 100 µM
TGI [55]: > 100 µM
TGI [30]: > 100 µM
TGI [31]: > 100 µM
TGI [32]: > 100 µM
TGI [33]: > 100 µM
TGI [34]: > 100 µM
TGI [56]: > 100 µM
